Several values for one entry are separate records, joined by “and”; a condition that tells them apart may be missing. Equal entries are not always repeated. Where two headings read alike, the source gives them in different places.
Tests used:
PDE5 = PDE5 (Homo sapiens, UniProt O76074); test: Phosphodiesterase 5 inhibition assay, Cerep (scintillation counting); type: biochemical; conditions: for percent inhibition at 2 µM: PDE5
Abl = Abl (Homo sapiens, UniProt P00519); test: ExpresS Diversity Kinase Profile, Cerep (LANCE): Abl; type: biochemical
FGFR3 = FGFR3 (Homo sapiens, UniProt P22607); test: ExpresS Diversity Kinase Profile, Cerep (LANCE): FGFR3; type: biochemical
EP3 [1] = biological target: T1, EP3 (Homo sapiens, UniProt P43115); test: EP3 functional agonist assay, Cerep (impedance)
T1 sequence (P43115 1-390): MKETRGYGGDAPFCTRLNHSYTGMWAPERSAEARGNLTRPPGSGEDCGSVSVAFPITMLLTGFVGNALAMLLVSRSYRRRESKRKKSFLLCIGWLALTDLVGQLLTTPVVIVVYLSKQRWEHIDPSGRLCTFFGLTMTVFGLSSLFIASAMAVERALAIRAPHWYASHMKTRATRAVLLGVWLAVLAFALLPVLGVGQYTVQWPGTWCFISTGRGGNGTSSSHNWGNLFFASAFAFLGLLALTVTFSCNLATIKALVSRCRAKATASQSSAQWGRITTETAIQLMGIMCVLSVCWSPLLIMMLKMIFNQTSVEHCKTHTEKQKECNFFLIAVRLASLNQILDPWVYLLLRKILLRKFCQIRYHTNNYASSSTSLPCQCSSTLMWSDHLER

TRPV1 = TRPV1 (Homo sapiens, UniProt Q8NER1); test: TRPV1 functional antagonist assay, Cerep (capsaicin 30 nM); type: cell-based
CaMK2α = CaMK2α (Homo sapiens, UniProt Q9UQM7); test: ExpresS Diversity Kinase Profile, Cerep (LANCE): CaMK2α; type: biochemical
GSK3β = GSK3β (Homo sapiens, UniProt P49841); test: ExpresS Diversity Kinase Profile, Cerep (LANCE): GSK3β; type: biochemical
p38α = p38α (Homo sapiens, UniProt Q16539); test: ExpresS Diversity Kinase Profile, Cerep (LANCE): p38α; type: biochemical; conditions: 150 µM
EP3 [2] = biological target: T1, EP3; test: EP3 functional antagonist assay, Cerep (sulprostone 0.1 nM, impedance)
ROCK1 = ROCK1 (Homo sapiens, UniProt Q13464); test: ExpresS Diversity Kinase Profile, Cerep (LANCE): ROCK1; type: biochemical
5-LO = biological target: T2, 5-LO (Homo sapiens, UniProt P09917); test: 5-LO product formation in neutrophil homogenates
T2 sequence (P09917 1-674): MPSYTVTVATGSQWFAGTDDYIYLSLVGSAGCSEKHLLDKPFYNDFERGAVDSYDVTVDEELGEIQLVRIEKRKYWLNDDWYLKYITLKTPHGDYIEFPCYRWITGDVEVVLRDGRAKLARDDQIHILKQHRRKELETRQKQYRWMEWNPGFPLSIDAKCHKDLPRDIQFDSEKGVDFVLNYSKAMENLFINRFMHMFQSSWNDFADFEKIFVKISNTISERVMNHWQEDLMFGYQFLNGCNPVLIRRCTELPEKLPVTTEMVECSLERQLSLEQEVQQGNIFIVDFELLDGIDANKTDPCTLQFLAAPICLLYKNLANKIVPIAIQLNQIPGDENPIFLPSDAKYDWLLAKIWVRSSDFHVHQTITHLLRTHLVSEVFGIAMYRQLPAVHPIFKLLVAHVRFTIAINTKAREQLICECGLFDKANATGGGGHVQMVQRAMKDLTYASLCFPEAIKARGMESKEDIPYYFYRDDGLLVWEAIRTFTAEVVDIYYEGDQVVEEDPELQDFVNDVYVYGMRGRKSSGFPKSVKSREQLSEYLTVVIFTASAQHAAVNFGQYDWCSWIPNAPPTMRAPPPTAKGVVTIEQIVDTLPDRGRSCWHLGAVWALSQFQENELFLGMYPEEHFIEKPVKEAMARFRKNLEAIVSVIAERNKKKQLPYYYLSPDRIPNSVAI

15-LO = 15-LO inhibition in intact human neutrophils; conditions: read-out: IC50 (15-LO), without DTT
EP1 = biological target: T3, EP1 (Homo sapiens, UniProt P34995); test: EP1 functional antagonist assay, Cerep (PGE2 3 nM, intracellular Ca2+)
T3 sequence (P34995 1-402): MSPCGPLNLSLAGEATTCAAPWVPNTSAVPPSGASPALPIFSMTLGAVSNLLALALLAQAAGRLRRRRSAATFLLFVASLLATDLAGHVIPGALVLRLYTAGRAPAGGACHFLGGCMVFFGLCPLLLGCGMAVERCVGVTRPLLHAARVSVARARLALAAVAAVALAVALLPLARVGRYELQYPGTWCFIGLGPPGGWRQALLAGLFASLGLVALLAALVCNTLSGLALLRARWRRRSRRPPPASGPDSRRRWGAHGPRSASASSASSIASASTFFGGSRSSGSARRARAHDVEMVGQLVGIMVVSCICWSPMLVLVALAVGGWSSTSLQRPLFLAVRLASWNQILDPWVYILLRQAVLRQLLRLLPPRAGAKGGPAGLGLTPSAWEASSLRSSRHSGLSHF

TRPM8 = biological target: T4, TRPM8 (Homo sapiens, UniProt Q7Z2W7); test: TRPM8 functional agonist assay, Cerep (intracellular Ca2+); type: cell-based; conditions: TRPM8 (agonist), 150 µM
T4 construct: Cerep, SA (fee-for-service assay) printed G018533 (citation number 33 glued on)

[3] = n = 2, read-out: % of control values, Mean
[4] = read-out: % of control values, 1st measurement
[5] = read-out: % of control values, 2nd measurement
[6] = n = 2, read-out: % Inhibition of control values, Mean
[7] = read-out: % Inhibition of control values, 1st measurement
[8] = read-out: % Inhibition of control values, 2nd measurement
[9] = Flag: Interference, read-out: % Inhibition of control values, 1st measurement
[10] = Flag: Interference, read-out: % Inhibition of control values, 2nd measurement
[11] = n = 2, Flag: Interference, read-out: % Inhibition of control values, Mean

T4 sequence (Q7Z2W7 whole entry): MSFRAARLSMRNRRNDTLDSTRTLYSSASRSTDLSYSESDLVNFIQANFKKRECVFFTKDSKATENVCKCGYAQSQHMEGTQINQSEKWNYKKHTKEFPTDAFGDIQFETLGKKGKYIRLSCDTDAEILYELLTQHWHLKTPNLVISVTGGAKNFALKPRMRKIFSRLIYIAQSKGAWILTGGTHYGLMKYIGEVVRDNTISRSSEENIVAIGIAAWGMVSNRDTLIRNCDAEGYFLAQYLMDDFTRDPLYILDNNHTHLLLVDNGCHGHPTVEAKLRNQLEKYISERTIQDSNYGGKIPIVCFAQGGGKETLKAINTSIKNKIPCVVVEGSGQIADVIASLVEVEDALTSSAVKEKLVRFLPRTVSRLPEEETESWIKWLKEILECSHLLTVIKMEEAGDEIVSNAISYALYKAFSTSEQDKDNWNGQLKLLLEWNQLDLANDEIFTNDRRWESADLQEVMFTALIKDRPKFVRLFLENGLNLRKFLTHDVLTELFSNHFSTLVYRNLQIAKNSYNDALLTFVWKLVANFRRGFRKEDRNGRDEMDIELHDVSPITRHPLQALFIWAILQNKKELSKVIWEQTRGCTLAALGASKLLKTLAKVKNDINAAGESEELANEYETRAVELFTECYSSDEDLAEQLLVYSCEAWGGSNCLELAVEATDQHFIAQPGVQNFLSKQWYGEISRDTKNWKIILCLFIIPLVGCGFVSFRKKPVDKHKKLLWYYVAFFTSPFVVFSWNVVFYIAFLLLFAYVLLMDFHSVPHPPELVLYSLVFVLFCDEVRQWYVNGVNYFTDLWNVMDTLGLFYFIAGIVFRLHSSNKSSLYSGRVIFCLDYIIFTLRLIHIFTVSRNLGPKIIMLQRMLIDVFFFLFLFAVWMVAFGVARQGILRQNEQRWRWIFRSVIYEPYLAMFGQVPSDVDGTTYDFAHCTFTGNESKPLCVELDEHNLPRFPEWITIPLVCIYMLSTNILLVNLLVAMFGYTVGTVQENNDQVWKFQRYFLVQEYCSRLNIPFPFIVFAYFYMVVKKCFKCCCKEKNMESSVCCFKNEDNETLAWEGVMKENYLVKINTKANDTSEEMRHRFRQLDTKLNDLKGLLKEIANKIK
Chain of ROCK1 (Q13464 whole entry): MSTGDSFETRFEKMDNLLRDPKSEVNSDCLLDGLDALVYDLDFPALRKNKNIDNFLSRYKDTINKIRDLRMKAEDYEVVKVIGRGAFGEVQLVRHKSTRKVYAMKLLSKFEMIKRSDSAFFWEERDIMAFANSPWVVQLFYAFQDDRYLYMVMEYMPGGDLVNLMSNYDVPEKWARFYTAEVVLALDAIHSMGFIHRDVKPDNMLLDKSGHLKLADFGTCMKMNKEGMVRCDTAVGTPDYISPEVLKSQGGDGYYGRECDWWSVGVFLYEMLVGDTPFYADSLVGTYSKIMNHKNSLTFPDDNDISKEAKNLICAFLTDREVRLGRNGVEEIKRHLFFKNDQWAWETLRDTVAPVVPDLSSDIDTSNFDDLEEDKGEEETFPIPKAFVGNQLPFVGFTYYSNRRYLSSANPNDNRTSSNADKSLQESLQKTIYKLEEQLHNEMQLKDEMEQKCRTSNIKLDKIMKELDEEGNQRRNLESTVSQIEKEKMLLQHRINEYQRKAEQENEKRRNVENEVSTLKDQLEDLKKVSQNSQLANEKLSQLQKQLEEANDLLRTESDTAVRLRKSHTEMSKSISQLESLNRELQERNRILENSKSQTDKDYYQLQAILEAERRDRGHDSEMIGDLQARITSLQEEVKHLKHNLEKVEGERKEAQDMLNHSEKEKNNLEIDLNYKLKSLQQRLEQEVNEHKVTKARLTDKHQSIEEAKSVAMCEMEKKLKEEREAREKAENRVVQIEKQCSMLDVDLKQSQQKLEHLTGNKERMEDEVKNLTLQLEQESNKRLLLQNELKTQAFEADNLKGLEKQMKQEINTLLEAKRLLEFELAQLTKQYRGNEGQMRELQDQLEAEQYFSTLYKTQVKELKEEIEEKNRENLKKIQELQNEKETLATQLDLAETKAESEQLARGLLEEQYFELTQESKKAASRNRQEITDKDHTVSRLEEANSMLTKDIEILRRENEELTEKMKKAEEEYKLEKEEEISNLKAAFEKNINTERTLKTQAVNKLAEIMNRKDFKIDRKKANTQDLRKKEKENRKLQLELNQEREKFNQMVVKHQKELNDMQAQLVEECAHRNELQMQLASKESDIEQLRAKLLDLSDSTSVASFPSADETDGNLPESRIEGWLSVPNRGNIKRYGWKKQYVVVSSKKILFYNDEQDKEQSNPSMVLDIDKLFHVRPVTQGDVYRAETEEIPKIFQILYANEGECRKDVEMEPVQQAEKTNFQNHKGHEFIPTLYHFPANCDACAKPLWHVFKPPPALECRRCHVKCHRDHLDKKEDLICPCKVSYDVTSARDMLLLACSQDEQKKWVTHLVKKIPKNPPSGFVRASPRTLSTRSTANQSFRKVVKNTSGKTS
Chain of CaMK2α (Q9UQM7 whole entry): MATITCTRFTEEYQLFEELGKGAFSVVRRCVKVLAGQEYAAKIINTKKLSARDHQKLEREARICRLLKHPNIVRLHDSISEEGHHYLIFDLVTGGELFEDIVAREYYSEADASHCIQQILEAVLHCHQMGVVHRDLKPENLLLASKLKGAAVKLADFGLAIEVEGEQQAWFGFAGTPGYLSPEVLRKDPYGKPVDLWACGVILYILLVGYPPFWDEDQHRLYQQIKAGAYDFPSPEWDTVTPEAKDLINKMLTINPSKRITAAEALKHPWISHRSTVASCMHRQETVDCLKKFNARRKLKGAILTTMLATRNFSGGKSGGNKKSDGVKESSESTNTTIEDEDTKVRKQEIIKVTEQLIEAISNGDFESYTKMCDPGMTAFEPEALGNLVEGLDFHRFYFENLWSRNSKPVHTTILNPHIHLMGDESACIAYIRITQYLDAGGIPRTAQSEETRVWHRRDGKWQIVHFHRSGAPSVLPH
Chain of Abl (P00519 whole entry): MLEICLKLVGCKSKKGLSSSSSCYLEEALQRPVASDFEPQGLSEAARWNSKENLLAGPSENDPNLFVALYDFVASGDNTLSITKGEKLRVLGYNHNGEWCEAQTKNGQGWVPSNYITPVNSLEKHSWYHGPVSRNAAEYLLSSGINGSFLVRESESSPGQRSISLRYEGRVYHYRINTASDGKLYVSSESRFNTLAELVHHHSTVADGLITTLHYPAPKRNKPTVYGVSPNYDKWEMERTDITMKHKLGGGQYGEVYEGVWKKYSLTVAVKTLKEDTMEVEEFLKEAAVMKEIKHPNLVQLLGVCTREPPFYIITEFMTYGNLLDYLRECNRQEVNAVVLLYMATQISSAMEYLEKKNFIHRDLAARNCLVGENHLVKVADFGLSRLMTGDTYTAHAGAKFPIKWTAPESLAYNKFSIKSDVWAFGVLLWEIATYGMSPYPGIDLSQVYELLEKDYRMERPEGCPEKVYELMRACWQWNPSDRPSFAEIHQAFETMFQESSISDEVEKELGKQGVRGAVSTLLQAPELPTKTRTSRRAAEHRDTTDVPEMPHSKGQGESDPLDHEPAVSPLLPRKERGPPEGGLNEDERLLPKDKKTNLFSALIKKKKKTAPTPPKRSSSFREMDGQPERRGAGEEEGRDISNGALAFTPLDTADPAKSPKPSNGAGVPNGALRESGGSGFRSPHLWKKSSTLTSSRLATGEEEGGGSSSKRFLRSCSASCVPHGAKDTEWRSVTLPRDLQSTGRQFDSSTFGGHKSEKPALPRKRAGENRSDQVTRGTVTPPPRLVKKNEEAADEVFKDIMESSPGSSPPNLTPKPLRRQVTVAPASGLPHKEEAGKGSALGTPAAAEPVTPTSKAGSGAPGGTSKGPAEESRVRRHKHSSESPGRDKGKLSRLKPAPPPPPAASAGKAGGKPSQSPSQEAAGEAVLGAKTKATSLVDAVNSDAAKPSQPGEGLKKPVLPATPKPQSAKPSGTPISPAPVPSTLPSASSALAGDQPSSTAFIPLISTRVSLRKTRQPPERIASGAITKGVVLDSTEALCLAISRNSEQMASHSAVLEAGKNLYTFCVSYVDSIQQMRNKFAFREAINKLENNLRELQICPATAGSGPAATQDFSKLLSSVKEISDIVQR
Chain of GSK3β (P49841 whole entry): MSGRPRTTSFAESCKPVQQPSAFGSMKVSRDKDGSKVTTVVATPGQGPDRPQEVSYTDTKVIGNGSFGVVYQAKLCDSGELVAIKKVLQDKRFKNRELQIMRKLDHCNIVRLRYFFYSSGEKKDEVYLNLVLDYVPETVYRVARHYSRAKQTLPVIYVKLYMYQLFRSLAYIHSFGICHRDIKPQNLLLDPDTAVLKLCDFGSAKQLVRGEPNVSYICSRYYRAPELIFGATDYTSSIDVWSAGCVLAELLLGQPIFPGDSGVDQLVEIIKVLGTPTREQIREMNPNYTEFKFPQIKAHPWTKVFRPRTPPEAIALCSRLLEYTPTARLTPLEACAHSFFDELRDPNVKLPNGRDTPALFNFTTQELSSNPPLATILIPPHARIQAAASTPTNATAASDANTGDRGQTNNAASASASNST
Chain of p38α (Q16539 whole entry): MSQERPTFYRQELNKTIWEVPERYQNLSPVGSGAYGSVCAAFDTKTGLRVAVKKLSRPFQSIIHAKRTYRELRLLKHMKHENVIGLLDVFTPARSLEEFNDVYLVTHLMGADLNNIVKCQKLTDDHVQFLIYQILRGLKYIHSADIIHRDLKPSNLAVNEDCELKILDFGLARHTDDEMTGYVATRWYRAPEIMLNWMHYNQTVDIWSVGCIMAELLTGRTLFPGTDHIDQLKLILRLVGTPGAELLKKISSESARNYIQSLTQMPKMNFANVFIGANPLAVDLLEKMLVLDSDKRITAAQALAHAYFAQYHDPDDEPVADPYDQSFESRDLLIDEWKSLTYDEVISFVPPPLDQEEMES

For `CC1(C)CCC2=C(O1)c1ccccc1C(=O)C2=O` [β-Lapachone], the IC50 (PDE5) was > 10 µM, the percent inhibition at 2 µM (PDE5; [3]) was -8.3% and the percent inhibition at 2 µM (PDE5; [4]) was -6.9%. The percent inhibition at 2 µM (PDE5; [5]) was -9.7%, the “activity against PDE5” value (PDE5; screening against phosphodiesterase 5) was “inactivity” and the inhibition at 150 µM (Abl; [6]) was 42.4%. For the same molecule, the inhibition at 150 µM (Abl; [7]) was 42.9%, the inhibition at 150 µM (Abl; [8]) was 41.8% and the inhibition at 150 µM (FGFR3; [9]) was 76.5%. For the same molecule, the inhibition at 150 µM (FGFR3; [10]) was 85.1%, the inhibition at 150 µM (FGFR3; [11]) was 80.8% and the remaining activity at 150 µM (EP3 [1]; [4]) was 18.6%. For the same molecule, the remaining activity at 150 µM (EP3 [1]; [5]) was 15.5%, the remaining activity at 150 µM (EP3 [1]; read-out: % of control values, Mean) was 17% and the IC50 (TRPV1) was ~100 µM. It also gave an inhibition at 150 µM (CaMK2α; [6]) of 54.8%, an inhibition at 150 µM (CaMK2α; [7]) of 61.5% and an inhibition at 150 µM (CaMK2α; [8]) of 48%. It also gave an inhibition at 150 µM (GSK3β; [6]) of 94.2%, an inhibition at 150 µM (GSK3β; [7]) of 95% and an inhibition at 150 µM (GSK3β; [8]) of 93.4%. The inhibition at 150 µM (p38α; [6]) was 25.1%, the inhibition at 150 µM (p38α; [7]) was 27.1% and the inhibition at 150 µM (p38α; [8]) was 23.1%. The Kb (EP3 [2]) was 22 µM, the “ligand efficiency (LE)” value (EP3 [2]; EP3) was 0.36 and the IC50 (EP3 [2]; Experimental –log(IC50 or KD), EP3) was 20 µM. It also gave an IC50 (EP3 [2]; IC50, EP3 concentration–inhibition curve, n = 2) of 63 µM, an inhibition at 150 µM (ROCK1; [9]) of -12.5% and an inhibition at 150 µM (ROCK1; [10]) of -3.2%. For the same molecule, the inhibition at 150 µM (ROCK1; [11]) was -7.9%, the IC50 (5-LO; IC50 (with DTT), neutrophil homogenates with 1 mM DTT, n = 3) was 0.09 µM and 0.085 µM and the IC50 (5-LO; IC50 (without DTT), neutrophil homogenates without DTT, n = 3) was 5.2 µM. The IC50 (5-LO; IC50, neutrophil homogenates with 1 mM dithiothreitol) was 0.0855 µM, the IC50 (15-LO) was > 30 µM and the IC50 (EP1) was > 100 µM. It also gave a remaining activity at 150 µM (TRPM8; [3]) of -20.4%, a remaining activity at 150 µM (TRPM8; [4]) of -20.4% and a remaining activity at 150 µM (TRPM8; [5]) of -20.4%.

— article PMC6138237, “Machine intelligence decrypts β-lapachone as an allosteric 5-lipoxygenase inhibitor” (Chemical Science, 2018)
